According to patent US8598132B2, “Glycosylated indolocarbazoles, method for obtaining same and uses thereof” (Universidad de Oviedo, priority 2008, dated 2013):

How the values were obtained:
Type in all cases: biochemical
[1] = system: CamK2a; experiment: LabChip (Caliper) kinase assay, CamK2a
Experimental: (§1) The analysis of kinase activity described here was performed using LabChip (Caliper Life Sciences), specifically the Caliper LC3000 and the EZ Reader II instruments.
(§2) The kinase assay used measures the conversion of a fluorescent peptide (substrate) to a phosphorylated product. The reaction mixture, in a microplate well, is introduced by a capillary in a chip where the non-phosphorylated substrate and the phosphorylated product are separated by […]. The intensity of the fluorescent signal over time is related to the reaction progress. The phosphorylated product migrates quicker than the non-phosphorylated substrate and the signals of the two forms of the peptide appear as differentiated peaks. The Caliper determines the peak height and calculates the ratio of product to the peak sum (P/(P+S)). This value is used to compare wells with compounds and wells with controls and thus determine the % of inhibition for the given product.
(§3) The followings kinases were used for the enzymatic inhibition studies, between brackets the value of the Michaelis-Menten constant, Km, of the ATP (Adenosine triphosphate) for each kinase, in μM: obtained from Carna Biosciences: MAPKAPK2 (4.6), AurA (3.6), AurB (5), PKCζ (3.8), RSK1 (23.3), PRAK (5), Erk1 (33.4), PKD2 (32.1), CK1d (16.3), CHK1 (33), ABL (61.7), FYN (36), LYNa (17), CHK2 (57.8), MET (79.5), LCK (28.5), SRC (38), GSK3β (7.3), Erk2 (62.1), PKACα (1.7), AKT2 (186.1), INSR (871.8), p38a (396.5), AKT1(48), MSK1 (21.2), PKCβ2 (84.8), ROCK2 (3.3), PIM2 (4.9), AMPK (38.6), KDR (164.8), IRAK4 (196.5), SGK1 (121.8), SYK (33.5); obtained from Invitrogen: CDK2 (57.6), BTK (123), HGK (80); obtained from Upstate: MST2 (36.6), PKGα (16), PAK2 (1.9), IGF1R (320), FGFR1 (171), MARK1 (33), CAMK2δ (22.4), c-TAK1 (66), DYRK1a (18.1), CaMK4 (3.9), FLT3 (350), c-Raf (6.2), P70S6K (95).
(§4) The compounds were dissolved in 100% DMSO and were diluted at 25 times the final concentration desired for the assay. In the case of the determination of Cl50, serial dilutions were made to reach eight concentrations and give rise to the inhibition curve. 1 μL of each concentration is transferred, in duplicate to a 384-well microplate. 12 μL of enzymatic buffer is added to each well containing purified kinase (several suppliers as indicated above), 100 mM HEPES, pH 7.5, 1 mM DTT (Calbiochem), 0.002% Brij-35 (Sigma) and also in presence of 10 mM MgCl2 as cofactor, except for INSR and IRAK4 wherein 10 mM MnCl2 is used instead of MgCl2. For the kinases CAMK26 and CAMK4, 1 mM CaCl2 and 6.7 μg/mL of calmodulin are also added. For KDR kinase, 0.05% of the CHAPSO detergent is added. For the c-Raf kinase, 10 mM MnCl2 is added. For PKCβ2 0.02 μg/mL of PS/PMA is added. For PKGα se 10 μM of cGMP (cyclic guanosine monophosphate) is added. The compound and the enzyme are left for 15 minutes preincubation and, then, the following are added to each well: 12 μL of peptide buffer/ATP containing 100 mM HEPES, pH 7.5, 1.5 μM peptide marker with fluorescein (specific for the corresponding kinase), ATP (at concentration KM), and 0.002% Brij-35 to start the reaction. Generally, the reactions are incubated for 1-1.5 h at ambient temperature to obtain an adequate conversion (15-40%) of the peptide to the phosphorylated product. The reactions were ended by the addition of 45 μL of buffer containing 0 mM EDTA. The microplates were read by the LabChip 3000 using a 12-channel LabChip. The P/(P+S) values were obtained as described above and the CI50 curves were generated using XIfit.
(§5) For example, the activity of the Dyrk1a kinase is inhibited in 87% by the compound of formula (III) and completely by the compound of formula (XII) when used at a concentration of 10 nM.

[2] = molecular target: T1, Dyrk1a (Homo sapiens, UniProt Q13627); experiment: LabChip (Caliper) kinase assay, Dyrk1a; conditions: for inhibition at 0.01 µM: compound at 10 nM; for inhibition at 0.01 µM / inhibition at 0.1 µM: read-out: remaining kinase activity (in %) / percentage of inhibition; for inhibition at 0.1 µM: compound at 100 nM; for IC50: ATP at Km, read-out: CI50 (the source's name)
T1 construct: purchased Upstate
Experimental: as §1, §2, §3, §4
Table 9a has the 0150 data obtained in pairs of compound-kinase selected from the compounds of formula (VII), (VIII), (IX), (XVI), (XVII) and (XVIII) after taking inhibition measurements at 100 nM and 10 nM. Those couples that provide >70% of inhibition at 10 nM were consider for measuring its IC50. […]

[3] = molecular target: T2, PDK1 (Homo sapiens, UniProt O15530); experiment: LabChip (Caliper) kinase assay, PDK1; conditions: read-out: remaining kinase activity (in %) / percentage of inhibition; for inhibition at 0.01 µM: compound at 10 nM; for inhibition at 0.1 µM: compound at 100 nM
T2 sequence (O15530 1-556): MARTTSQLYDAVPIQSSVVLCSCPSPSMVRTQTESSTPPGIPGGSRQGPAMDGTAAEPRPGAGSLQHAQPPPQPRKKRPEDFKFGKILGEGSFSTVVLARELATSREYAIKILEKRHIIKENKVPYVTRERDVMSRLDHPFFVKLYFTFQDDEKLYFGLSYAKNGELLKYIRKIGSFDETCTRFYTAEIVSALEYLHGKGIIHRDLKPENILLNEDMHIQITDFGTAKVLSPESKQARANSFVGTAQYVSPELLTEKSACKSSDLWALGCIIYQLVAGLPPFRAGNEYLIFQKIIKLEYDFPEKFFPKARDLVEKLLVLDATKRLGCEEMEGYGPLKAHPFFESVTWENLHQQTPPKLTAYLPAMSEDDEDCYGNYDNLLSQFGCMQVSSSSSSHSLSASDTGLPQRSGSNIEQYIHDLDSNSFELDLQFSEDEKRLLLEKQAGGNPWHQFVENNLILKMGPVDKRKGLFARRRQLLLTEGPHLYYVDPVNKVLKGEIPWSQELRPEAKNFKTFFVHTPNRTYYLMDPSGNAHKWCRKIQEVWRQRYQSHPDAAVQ
Experimental: as §1, §2, §3, §4, §5

SMILES	remaining kinase activity (in %) / percentage of inhibition ([1]; compound at 10 nM) [%]	remaining kinase activity (in %) / percentage of inhibition ([1]; compound at 100 nM) [%]	inhibition at 0.01 µM [2] [%]	inhibition at 0.1 µM [2] [%]	inhibition at 0.01 µM [3] [%]	inhibition at 0.1 µM [3] [%]	IC50 [2] [nM]
C[C@H]1O[C@@H](n2c3ccccc3c3c4c(c5c6ccccc6[nH]c5c32)CNC4=O)C[C@@H](O)[C@@H]1O [formula (XV), N^13-1′-β-D-olivosyl-k252c]	−6	29	14	50	3	81	–
C[C@]12O[C@H](C[C@@H](O)[C@H]1O)n1c3ccccc3c3c4c(c5c6ccccc6n2c5c31)CNC4=O [formula (XVIII), N^12-5′(S)-N^13-1′-(R)-L-digitoxosyl-k252c]	–	–	–	–	–	–	> 100
C[C@]12O[C@H]([C@H](O)[C@H](O)[C@H]1O)n1c3ccccc3c3c4c(c5c6ccccc6n2c5c31)C(=O)NC4=O [formula (VII), N^12-5′(S)-N^13-1′-(R)-L-rhamnosylarcyriaflavin]	–	–	–	–	–	–	4
C[C@@H]1O[C@@H](n2c3ccccc3c3c4c(c5c6ccccc6[nH]c5c32)C(=O)NC4=O)C[C@H](O)[C@H]1O [formula (IV), N^13-1′-β-L-olivosylarcyriaflavin]	36	29	32	75	7	71	–
C[C@H]1O[C@@H](n2c3ccccc3c3c4c(c5c6ccccc6[nH]c5c32)C(=O)NC4=O)C[C@@H](O)[C@@H]1O [formula (VI), N^13-1′-β-D-olivosylarcyriaflavin]	4	46	62	94	21	76	–
C[C@@H]1O[C@@H](n2c3ccccc3c3c4c(c5c6ccccc6[nH]c5c32)CNC4=O)C[C@@H](O)[C@H]1O [formula (XIV), N^13-1′-β-L-digitoxosyl-k252c]	−7	26	15	73	30	94	–
C[C@@H]1O[C@@H](n2c3ccccc3c3c4c(c5c6ccccc6[nH]c5c32)CNC4=O)C[C@H](O)[C@H]1O [formula (XIII), N^13-1′-β-L-olivosyl-k252c]	−6	27	42	89	9	81	–
C[C@@H]1O[C@@H](n2c3ccccc3c3c4c(c5c6ccccc6[nH]c5c32)C(=O)NC4=O)C[C@@H](O)[C@H]1O [formula (V), N^13-1′-β-L-digitoxosylarcyriaflavin]	15	58	49	87	61	97	–
C[C@@H]1O[C@@H](n2c3ccccc3c3c4c(c5c6ccccc6[nH]c5c32)C(=O)NC4=O)[C@H](O)[C@H](O)[C@H]1O [formula (III), N^13-1′-β-L-rhamnosylarcyriaflavin]	−5	3	87	103	-6	46	–
C[C@@H]1O[C@@H](n2c3ccccc3c3c4c(c5c6ccccc6[nH]c5c32)CNC4=O)[C@H](O)[C@H](O)[C@H]1O [formula (XII), N^13-1′-β-L-rhamnosyl-k252c]	−6	2	101	115	-10	15	–
C[C@]12O[C@H](C[C@@H](O)[C@H]1O)n1c3ccccc3c3c4c(c5c6ccccc6n2c5c31)C(=O)NC4=O [formula (IX), N^12-5′(S)-N^13-1′-(R)-L-digitoxosylarcyriaflavin]	–	–	–	–	–	–	> 10
